Laboratory results: PubChem BioAssay (NCI)
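1) Cells in 96-well plates. 2) Compound, 48 h, 5 concentrations. 3) Linear interpolation between surrounding doses. 4) Unreached endpoint = highest concentration. TGI is the concentration that stops growth completely.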

How the values were obtained:
Test in all cases: DTP human tumour cell line panel, 48 h
SR leukemia = tested on: SR leukemia
NCI-H460 lung = tested on: NCI-H460 lung
IGROV1 ovarian = tested on: IGROV1 ovarian
MALME-3M melanoma = tested on: MALME-3M melanoma
MDA-MB-435 = tested on: MDA-MB-435
NCI/ADR-RES ovarian = tested on: NCI/ADR-RES ovarian
CCRF-CEM leukemia = tested on: CCRF-CEM leukemia
A549 NSCLC = tested on: A549 NSCLC
OVCAR-8 ovarian = tested on: OVCAR-8 ovarian
LOX IMVI melanoma = tested on: LOX IMVI melanoma
SNB-19 CNS = tested on: SNB-19 CNS
MDA-MB-231 breast = tested on: MDA-MB-231 breast
SK-MEL-2 melanoma = tested on: SK-MEL-2 melanoma
OVCAR-3 ovarian = tested on: OVCAR-3 ovarian
NCI-H226 lung = tested on: NCI-H226 lung
A498 renal = tested on: A498 renal
HOP-62 NSCLC = tested on: HOP-62 NSCLC
OVCAR-5 ovarian = tested on: OVCAR-5 ovarian
NCI-H23 lung = tested on: NCI-H23 lung
KM12 colon = tested on: KM12 colon
SF-539 CNS = tested on: SF-539 CNS
MCF7 breast = tested on: MCF7 breast
UACC-257 melanoma = tested on: UACC-257 melanoma
HOP-92 NSCLC = tested on: HOP-92 NSCLC
EKVX NSCLC = tested on: EKVX NSCLC
PC-3 prostate = tested on: PC-3 prostate
UO-31 renal = tested on: UO-31 renal
COLO 205 colon = tested on: COLO 205 colon
M14 melanoma = tested on: M14 melanoma
MOLT-4 leukemia = tested on: MOLT-4 leukemia
SF-295 CNS = tested on: SF-295 CNS
CAKI-1 renal = tested on: CAKI-1 renal
HT29 colon = tested on: HT29 colon
SK-OV-3 ovarian = tested on: SK-OV-3 ovarian
SK-MEL-5 melanoma = tested on: SK-MEL-5 melanoma
K-562 leukemia = tested on: K-562 leukemia
T-47D breast = tested on: T-47D breast
SW-620 colon = tested on: SW-620 colon
RPMI-8226 leukemia = tested on: RPMI-8226 leukemia
SNB-75 CNS = tested on: SNB-75 CNS
NCI-H522 lung = tested on: NCI-H522 lung
HL-60(TB) leukemia = tested on: HL-60(TB) leukemia
RXF 393 renal = tested on: RXF 393 renal
ACHN renal = tested on: ACHN renal
HCT-15 colon = tested on: HCT-15 colon
TK-10 renal = tested on: TK-10 renal
OVCAR-4 ovarian = tested on: OVCAR-4 ovarian
BT-549 breast = tested on: BT-549 breast
HCC-2998 colon = tested on: HCC-2998 colon
786-0 renal = tested on: 786-0 renal
U251 CNS = tested on: U251 CNS
HCT-116 colon = tested on: HCT-116 colon
DU-145 prostate = tested on: DU-145 prostate
SK-MEL-28 melanoma = tested on: SK-MEL-28 melanoma
SN12C renal = tested on: SN12C renal
SF-268 CNS = tested on: SF-268 CNS
UACC-62 melanoma = tested on: UACC-62 melanoma
HS 578T breast = tested on: HS 578T breast

Measured: TGI

CC(=O)C1=C(O)/C(=C\c2ccco2)OC1=O
> 10 µM: SR leukemia | NCI-H460 lung | IGROV1 ovarian | MALME-3M melanoma | MDA-MB-435 | NCI/ADR-RES ovarian | CCRF-CEM leukemia | A549 NSCLC | OVCAR-8 ovarian | LOX IMVI melanoma | SNB-19 CNS | MDA-MB-231 breast | SK-MEL-2 melanoma | OVCAR-3 ovarian | NCI-H226 lung | A498 renal | HOP-62 NSCLC | OVCAR-5 ovarian | NCI-H23 lung | KM12 colon | SF-539 CNS | MCF7 breast | UACC-257 melanoma | HOP-92 NSCLC | EKVX NSCLC | PC-3 prostate | UO-31 renal | COLO 205 colon | M14 melanoma | MOLT-4 leukemia | SF-295 CNS | CAKI-1 renal | HT29 colon | SK-OV-3 ovarian | SK-MEL-5 melanoma | K-562 leukemia | T-47D breast | SW-620 colon | RPMI-8226 leukemia | SNB-75 CNS | NCI-H522 lung | HL-60(TB) leukemia | RXF 393 renal | ACHN renal | HCT-15 colon | TK-10 renal | OVCAR-4 ovarian | BT-549 breast | HCC-2998 colon | 786-0 renal | U251 CNS | HCT-116 colon | DU-145 prostate | SK-MEL-28 melanoma | SN12C renal | SF-268 CNS | UACC-62 melanoma | HS 578T breast
